From ChEMBL document CHEMBL5465560, “Selectivity Literature for EUbOPEN Chemogenomic Library” (2024)

Assays:
[1] = target: Histone acetyltransferase KAT2B (Homo sapiens, UniProt Q92831); test: Selectivity interaction (Human bromodomain panel (DSF assay)) EUB0000233b KAT2B
[2] = target: Cyclin-dependent kinase 13 (Homo sapiens, UniProt Q14004); test: Selectivity interaction (KinomeScan (DiscoverX)) EUB0000229b CDK13; conditions: at 10 µM
[3] = target: T1, cGMP-dependent protein kinase 1 (Homo sapiens) (UniProt Q13976); test: Selectivity interaction (KinomeScan (DiscoverX)) EUB0001079a PRKG1; conditions: at 1 µM
T1 sequence (whole entry): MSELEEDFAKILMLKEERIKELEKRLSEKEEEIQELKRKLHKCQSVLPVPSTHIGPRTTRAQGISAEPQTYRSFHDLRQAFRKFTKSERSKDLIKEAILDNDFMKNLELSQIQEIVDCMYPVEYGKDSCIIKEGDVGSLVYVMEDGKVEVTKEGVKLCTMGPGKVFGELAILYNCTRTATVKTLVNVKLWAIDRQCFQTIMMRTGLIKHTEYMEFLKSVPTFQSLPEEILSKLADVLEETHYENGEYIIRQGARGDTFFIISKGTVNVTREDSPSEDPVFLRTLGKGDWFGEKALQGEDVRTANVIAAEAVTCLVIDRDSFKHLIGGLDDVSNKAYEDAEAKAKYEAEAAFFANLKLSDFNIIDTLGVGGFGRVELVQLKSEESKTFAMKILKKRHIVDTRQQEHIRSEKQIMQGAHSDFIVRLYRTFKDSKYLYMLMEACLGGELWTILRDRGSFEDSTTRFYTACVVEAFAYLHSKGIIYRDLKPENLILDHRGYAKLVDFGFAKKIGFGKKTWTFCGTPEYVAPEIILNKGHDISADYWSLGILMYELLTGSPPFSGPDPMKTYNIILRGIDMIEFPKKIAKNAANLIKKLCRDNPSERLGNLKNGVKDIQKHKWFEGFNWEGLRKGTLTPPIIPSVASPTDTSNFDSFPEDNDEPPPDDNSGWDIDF

[4] = target: T2, Dual specificity mitogen-activated protein kinase kinase 6 (Homo sapiens) (UniProt P52564); test: Selectivity interaction (LanthaScreen Eu Kinase Binding Assay) EUB0001632a MAP2K6; conditions: at 10 µM
T2 sequence (whole entry): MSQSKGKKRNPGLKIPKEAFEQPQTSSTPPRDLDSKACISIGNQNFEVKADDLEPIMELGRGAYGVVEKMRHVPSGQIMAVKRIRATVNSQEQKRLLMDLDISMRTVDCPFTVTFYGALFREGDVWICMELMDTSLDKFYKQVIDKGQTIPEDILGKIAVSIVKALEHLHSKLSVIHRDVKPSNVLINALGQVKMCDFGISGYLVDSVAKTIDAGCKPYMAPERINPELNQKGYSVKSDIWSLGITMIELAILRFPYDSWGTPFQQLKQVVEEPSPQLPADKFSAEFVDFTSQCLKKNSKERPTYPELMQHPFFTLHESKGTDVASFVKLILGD

[5] = target: Phosphatidylinositol 4-phosphate 3-kinase C2 domain-containing subunit alpha (Homo sapiens) (UniProt O00443); test: Selectivity interaction (ProQinase) EUB0000171b PIK3C2A
[6] = target: Calcium/calmodulin-dependent protein kinase type 1 (Homo sapiens) (UniProt Q14012); test: Selectivity interaction (ActivX KiNativ screen (ex vivo kinase selectivity in human PBMCs)) EUB0001619a CAMK1; type: cell-based; conditions: PBMC, at 1 µM
[7] = target: Protein arginine N-methyltransferase 1 (Homo sapiens, UniProt Q99873); test: Selectivity interaction (Methyltransferase screen (Scintillation proximity assays)) EUB0000255b PRMT1
[8] = target: Serine/threonine-protein kinase WNK1 (Homo sapiens) (UniProt Q9H4A3); test: Selectivity interaction (Kinase panel (DSF assay)) EUB0001558a WNK1
[9] = target: Tyrosine-protein kinase JAK1 (Homo sapiens, UniProt P23458); test: Selectivity interaction (ActivX KiNativ screen (kinase selectivity in THP-1 cell lysates)) EUB0000639a JAK1; type: subcellular; conditions: lysate, at 5 µM
[10] = target: T3, Serine/threonine-protein kinase D3 (Homo sapiens) (UniProt O94806); test: Selectivity interaction (Kinase panel (Invitrogen)) EUB0000639a PRKD3; conditions: at 200 nM
T3 sequence (whole entry): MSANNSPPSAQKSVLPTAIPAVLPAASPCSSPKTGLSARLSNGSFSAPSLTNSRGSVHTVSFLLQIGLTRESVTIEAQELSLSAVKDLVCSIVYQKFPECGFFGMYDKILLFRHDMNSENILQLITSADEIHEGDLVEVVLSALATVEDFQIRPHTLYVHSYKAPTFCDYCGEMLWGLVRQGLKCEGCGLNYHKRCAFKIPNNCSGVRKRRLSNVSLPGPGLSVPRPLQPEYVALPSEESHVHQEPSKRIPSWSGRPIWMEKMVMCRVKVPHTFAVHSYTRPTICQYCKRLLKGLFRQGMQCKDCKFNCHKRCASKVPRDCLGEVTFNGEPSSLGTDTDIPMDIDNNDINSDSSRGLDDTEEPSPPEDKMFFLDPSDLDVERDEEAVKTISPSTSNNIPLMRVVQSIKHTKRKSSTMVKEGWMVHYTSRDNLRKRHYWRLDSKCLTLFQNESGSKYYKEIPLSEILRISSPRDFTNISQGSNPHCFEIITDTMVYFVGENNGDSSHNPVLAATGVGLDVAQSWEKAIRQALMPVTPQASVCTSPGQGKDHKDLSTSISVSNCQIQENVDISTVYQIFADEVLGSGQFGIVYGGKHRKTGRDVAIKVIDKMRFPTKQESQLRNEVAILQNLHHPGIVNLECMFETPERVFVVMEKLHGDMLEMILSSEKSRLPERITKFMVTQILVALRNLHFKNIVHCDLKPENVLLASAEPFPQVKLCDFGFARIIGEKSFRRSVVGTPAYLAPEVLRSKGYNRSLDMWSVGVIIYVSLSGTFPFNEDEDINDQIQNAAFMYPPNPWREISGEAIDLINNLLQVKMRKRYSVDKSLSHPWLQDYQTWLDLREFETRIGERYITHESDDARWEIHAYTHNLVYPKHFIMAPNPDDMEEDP

[11] = target: Dual specificity protein kinase CLK4 (Homo sapiens, UniProt Q9HAZ1); test: Selectivity interaction (Ambit KINOMEscan and KiNATiv profiling in Jurkat cells) EUB0000090b CLK4; type: cell-based; conditions: at 1 µM

Phosphatidylinositol 4-phosphate 3-kinase C2 domain-containing subunit alpha (Homo sapiens), sequence (O00443 whole entry, the tested form may be a part): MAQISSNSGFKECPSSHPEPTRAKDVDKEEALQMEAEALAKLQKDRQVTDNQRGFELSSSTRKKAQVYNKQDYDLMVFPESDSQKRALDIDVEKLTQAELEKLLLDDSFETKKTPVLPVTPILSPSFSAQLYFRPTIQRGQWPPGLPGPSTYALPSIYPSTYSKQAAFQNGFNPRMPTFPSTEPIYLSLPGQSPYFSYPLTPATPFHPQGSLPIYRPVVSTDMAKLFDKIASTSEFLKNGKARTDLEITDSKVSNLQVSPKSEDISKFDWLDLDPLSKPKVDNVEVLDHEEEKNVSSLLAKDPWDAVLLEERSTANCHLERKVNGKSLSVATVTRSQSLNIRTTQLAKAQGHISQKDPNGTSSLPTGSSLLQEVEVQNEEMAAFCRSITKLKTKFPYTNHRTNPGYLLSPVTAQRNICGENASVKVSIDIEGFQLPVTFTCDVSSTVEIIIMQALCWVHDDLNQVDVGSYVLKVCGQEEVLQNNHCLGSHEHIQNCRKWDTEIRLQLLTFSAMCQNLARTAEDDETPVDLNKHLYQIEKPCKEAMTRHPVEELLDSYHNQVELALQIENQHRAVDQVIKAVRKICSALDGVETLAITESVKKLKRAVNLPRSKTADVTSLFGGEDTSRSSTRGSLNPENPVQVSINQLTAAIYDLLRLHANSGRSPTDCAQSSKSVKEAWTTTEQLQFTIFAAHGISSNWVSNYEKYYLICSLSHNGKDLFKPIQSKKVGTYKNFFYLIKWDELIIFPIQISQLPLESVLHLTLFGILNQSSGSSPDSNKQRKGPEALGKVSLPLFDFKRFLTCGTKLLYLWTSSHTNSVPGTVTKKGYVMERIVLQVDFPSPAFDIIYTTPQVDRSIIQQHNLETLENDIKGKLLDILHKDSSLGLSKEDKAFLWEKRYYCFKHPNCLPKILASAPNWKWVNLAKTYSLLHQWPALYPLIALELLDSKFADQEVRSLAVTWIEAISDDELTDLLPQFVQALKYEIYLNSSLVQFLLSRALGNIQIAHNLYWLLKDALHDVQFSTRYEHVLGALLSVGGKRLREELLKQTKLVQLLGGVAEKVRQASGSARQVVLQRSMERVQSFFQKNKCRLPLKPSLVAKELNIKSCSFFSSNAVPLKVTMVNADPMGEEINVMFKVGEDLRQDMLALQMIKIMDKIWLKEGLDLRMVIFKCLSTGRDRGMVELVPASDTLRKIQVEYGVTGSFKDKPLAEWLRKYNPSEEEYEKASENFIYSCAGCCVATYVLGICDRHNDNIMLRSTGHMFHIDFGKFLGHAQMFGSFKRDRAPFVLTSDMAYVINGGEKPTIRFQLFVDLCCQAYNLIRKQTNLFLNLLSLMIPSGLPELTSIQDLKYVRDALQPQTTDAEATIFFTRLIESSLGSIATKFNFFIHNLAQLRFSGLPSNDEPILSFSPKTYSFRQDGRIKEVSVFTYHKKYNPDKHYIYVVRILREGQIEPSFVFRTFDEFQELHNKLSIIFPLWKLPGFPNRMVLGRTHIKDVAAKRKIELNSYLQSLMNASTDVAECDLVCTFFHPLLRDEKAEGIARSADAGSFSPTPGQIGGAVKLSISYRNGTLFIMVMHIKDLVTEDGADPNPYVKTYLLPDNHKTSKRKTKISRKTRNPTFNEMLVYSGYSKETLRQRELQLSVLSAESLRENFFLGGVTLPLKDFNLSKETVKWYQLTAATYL
Protein arginine N-methyltransferase 1, sequence (Q99873 whole entry, looked up): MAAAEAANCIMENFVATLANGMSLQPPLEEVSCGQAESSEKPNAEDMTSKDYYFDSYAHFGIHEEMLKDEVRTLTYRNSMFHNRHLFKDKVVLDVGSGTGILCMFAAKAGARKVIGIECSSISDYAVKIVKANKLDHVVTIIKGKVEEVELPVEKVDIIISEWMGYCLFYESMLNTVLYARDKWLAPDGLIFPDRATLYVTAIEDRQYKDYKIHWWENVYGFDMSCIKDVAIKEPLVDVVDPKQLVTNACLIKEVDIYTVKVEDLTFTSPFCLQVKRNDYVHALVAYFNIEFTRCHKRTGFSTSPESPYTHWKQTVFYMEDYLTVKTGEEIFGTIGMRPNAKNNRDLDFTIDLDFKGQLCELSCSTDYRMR
Calcium/calmodulin-dependent protein kinase type 1 (Homo sapiens), sequence (Q14012 whole entry, looked up): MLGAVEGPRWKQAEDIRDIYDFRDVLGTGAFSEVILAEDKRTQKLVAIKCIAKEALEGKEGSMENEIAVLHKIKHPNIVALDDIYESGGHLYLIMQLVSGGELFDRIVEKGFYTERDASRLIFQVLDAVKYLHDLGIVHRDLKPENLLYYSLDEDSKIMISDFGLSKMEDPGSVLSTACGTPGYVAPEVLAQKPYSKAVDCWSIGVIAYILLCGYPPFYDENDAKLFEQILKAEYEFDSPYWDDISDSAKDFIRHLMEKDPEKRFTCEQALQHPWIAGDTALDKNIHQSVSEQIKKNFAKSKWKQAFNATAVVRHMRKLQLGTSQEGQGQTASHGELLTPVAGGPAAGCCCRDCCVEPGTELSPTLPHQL
Serine/threonine-protein kinase WNK1 (Homo sapiens), sequence (Q9H4A3 whole entry, looked up): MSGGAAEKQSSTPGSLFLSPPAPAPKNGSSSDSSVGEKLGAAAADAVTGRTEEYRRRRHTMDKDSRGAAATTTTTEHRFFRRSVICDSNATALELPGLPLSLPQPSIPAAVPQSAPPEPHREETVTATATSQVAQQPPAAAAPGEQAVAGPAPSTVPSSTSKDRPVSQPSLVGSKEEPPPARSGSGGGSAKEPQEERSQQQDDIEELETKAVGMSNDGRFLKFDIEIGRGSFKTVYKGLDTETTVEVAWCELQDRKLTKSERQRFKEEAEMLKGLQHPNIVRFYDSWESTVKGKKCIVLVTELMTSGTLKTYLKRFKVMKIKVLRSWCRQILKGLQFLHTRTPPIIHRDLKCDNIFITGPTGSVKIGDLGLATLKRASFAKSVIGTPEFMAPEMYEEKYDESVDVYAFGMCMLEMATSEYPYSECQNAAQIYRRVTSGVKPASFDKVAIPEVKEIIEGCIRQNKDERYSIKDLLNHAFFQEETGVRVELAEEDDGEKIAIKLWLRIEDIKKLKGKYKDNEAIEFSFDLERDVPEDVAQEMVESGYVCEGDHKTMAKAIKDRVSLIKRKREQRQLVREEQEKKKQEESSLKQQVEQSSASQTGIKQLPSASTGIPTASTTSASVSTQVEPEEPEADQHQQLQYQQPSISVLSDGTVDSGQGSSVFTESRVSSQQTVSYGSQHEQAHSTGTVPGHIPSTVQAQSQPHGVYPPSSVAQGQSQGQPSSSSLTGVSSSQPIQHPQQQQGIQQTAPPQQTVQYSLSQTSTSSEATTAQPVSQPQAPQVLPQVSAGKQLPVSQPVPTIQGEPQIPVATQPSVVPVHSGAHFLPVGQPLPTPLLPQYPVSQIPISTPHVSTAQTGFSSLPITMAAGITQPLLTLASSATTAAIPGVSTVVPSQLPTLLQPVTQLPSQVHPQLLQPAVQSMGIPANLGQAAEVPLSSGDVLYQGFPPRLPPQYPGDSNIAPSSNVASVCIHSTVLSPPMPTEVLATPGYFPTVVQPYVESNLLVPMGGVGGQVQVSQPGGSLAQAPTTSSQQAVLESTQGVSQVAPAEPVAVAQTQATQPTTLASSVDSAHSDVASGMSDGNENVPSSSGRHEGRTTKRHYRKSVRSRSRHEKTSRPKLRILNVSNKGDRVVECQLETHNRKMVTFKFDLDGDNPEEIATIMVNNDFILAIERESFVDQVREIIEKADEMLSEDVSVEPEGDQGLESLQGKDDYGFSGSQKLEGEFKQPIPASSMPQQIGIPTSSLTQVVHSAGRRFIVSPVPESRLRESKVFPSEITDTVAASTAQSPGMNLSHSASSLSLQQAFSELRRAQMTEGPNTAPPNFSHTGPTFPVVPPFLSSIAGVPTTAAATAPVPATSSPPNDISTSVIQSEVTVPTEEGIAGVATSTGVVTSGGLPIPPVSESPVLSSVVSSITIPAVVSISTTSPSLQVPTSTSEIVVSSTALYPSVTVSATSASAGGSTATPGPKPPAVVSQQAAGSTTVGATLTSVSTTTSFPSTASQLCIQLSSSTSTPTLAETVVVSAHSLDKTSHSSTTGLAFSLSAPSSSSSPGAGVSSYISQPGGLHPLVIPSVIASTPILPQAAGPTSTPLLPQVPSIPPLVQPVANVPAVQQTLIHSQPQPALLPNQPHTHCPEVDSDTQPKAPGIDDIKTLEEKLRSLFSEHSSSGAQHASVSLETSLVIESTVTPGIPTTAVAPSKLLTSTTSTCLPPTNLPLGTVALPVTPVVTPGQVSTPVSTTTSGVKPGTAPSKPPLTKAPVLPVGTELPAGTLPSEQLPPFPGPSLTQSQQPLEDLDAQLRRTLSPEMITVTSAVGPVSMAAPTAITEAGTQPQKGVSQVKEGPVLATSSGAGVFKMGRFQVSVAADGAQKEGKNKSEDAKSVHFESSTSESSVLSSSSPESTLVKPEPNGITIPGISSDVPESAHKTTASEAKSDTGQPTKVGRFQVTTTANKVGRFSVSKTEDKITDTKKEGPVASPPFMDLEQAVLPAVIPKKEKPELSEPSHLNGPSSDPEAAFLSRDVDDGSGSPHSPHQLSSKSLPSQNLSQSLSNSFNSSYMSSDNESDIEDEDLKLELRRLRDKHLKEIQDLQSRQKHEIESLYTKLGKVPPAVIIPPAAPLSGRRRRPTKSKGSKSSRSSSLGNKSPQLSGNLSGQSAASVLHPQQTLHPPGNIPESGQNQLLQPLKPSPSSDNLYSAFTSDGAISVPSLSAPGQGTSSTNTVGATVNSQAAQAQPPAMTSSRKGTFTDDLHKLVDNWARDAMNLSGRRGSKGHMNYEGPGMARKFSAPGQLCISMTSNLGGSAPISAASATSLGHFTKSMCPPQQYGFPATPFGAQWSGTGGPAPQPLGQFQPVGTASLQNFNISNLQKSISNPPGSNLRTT

## CN(C)CCCOc1ccc(-c2cc(NCCCn3cccn3)nc(S(C)(=O)=O)n2)cc1
[1]
  dTM: < 2 K

## COc1cc(N(C)c2ccnc3ccc(C(F)(F)F)cc23)cc(OC)c1OC
[2]
  % binding: 88%

## Nc1cnc(N2CCc3cc(S(=O)(=O)Nc4c(F)cc(Cl)cc4F)cc(N4CCCC4=O)c32)nc1 [TP-020n]
[3]
  % of control: 97%

## Cn1cc(-n2cnc3c(NCc4nc5cc(Cl)c(Cl)cc5[nH]4)nc(N4CCOCC4)nc32)cn1
[4]
  % of inhibition: -35%

## C=CC(=O)Nc1cccc(C(=O)Nc2ccc(Nc3cc(-c4[nH]c(SC)nc4C)ccn3)cc2)c1
[5]; at 1 µM
  % of control: 189%
[5]; at 5 µM
  % of control: 183%

## N#Cc1cccc(-c2c[nH]c3ncnc(N4CCOCC4)c23)c1
[6]
  % of inhibition: 2%

## COCCN1CCC(c2cc(CN(C)C(=O)c3cccc(Oc4ccccc4)c3)ccn2)CC1
[7]; at 1 µM
  % activity: 82%
[7]; at 10 µM
  % activity: > 90%

## CC(C)(O)[C@H](F)CN1Cc2cc(NC(=O)c3cnn4cccnc34)c(N3CCOCC3)cc2C1=O
[8]
  dTM: -0.2 K

## CC[C@@H]1[C@H](F)C(=O)N[C@@H]1COc1nccc2cc(C(N)=O)c(OC)cc12 [ZIMLOVISERTIB]
[9]
  % of inhibition: -5.3%
[10]
  % of inhibition: 10.2%

## CN(C)C/C=C/C(=O)Nc1ccc(C(=O)N2CCCC(Nc3ncc(Cl)c(-c4c[nH]c5ccccc45)n3)C2)cc1 (stereo not drawn)
[11]
  % of control: 73%
